Data from PMC10598577 (JACS Au, 2023).
“Also recorded” adds a separate entry of the source.

Tests used:
[1] = target: MopR M100Q_L119N (Acinetobacter guillouiae, UniProt Q43965, L119N/M100Q); assay: biochemical
[2] = target: MopR M100V_L119V (Acinetobacter guillouiae, UniProt Q43965, L119V/M100V); assay: biochemical
[3] = target: T1, wild type MopR (Acinetobacter guillouiae, UniProt Q43965); assay: biochemical
T1 sequence (Q43965 1-229): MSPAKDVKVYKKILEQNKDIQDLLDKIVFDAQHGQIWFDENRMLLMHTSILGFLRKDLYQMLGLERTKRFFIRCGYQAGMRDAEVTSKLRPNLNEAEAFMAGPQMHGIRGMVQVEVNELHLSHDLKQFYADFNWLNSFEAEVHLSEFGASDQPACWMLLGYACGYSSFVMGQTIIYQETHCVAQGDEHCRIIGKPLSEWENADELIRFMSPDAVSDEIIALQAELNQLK

[4] = target: MopR H106A; conditions: cited from earlier work
[5] = test system: MopR second barrier residues (F99, F132) mutated to leucine; conditions: F99, F132 mutated to nonaromatic leucine, ligand phenol
[6] = target: MopR M100Q_V116N (Acinetobacter guillouiae, UniProt Q43965, M100Q/V116N); assay: biochemical
[7] = target: MopR M100K_V116D (Acinetobacter guillouiae, UniProt Q43965, M100K/V116D); conditions: salt bridge mutant M100K_V116D, ligand phenol
[8] = target: MopR W134A; conditions: cited from earlier work
[9] = test system: MopR M100K_L119D; conditions: salt bridge mutant M100K_L119D, ligand phenol
[10] = target: T1, wild type MopR; conditions: wild type MopR sensor domain; previous ITC studies; cited from earlier work

Question: What does the source list for Oc1ccccc1 [phenol]?
Answer: Kd [1]: 2.7 ± 0.5 µM; Kd [2]: 0.45 ± 0.06 µM; Kd [3]: 0.46 ± 0.06 µM; Kd [4]: 7.86 ± 0.01 µM; binding affinity (ITC) [5]: significantly decrease the binding affinity; Kd [6]: 4.35 ± 0.07 µM; binding (ITC) [7]: no detectable binding; Kd [8]: 2.87 ± 0.01 µM; binding (ITC) [9]: no detectable binding

Question: With c1ccccc1 [benzene] as the molecule, how does the “ligand selection profile of MopR (binding, in words)” value [10] read?
Answer: significantly decreased affinity; also recorded: little or negligible binding
